Experimental data taken from patent US7157620B2, “Enhanced transformation and regeneration of transformed embryogenic pine tissue” (Mead Westvaco Corporation, priority 2000, dated 2007).

Columns and labels:
[1] = test system: P. taeda embryogenic cell lines; test: Effect of ABA in preparation, recovery and selection media on transformants after Agrobacterium inoculation; format: cell-based, Pinus taeda
Excerpt: (§1) Seven loblolly pine cell lines or hybrid cell lines from seven widely diverse genetic backgrounds were used which had been grown, maintained, and transformed using Agrobacterium as described in Example 1 above except that the preparation medium, used for preparation and co-cultivation of the cells, either contained or lacked ABA. Following eradication using wash medium as described in Example 5 above, polyester support membranes bearing approximately 0.1 g of embryogenic tissue were divided onto recovery media either containing or lacking ABA. […] Concentrations of ABA used in all these media were 0, 10, and 30 mg/L.
(§2) Cells were maintained on the selection media, with transfer of the polyester support membranes to fresh selection media of the same composition, every two weeks for a total of eight weeks of selection. […] The cells were also checked for the presence of sequences by PCR amplification using primers specific for both the uidA and nptII transgenes, techniques well known to those skilled in the art of plant transformation.

[2] = test system: P. rigida hybrid embryogenic cell line; test: as above; format: cell-based; settings: line H1
Excerpt: as §1, §2

[3] = test system: Loblolly pine cell lines; test: ABA in selection media after biolistic transformation; format: cell-based, Pinus taeda
Excerpt: Loblolly pine cell lines were used which had been grown and maintained as described in Example 1 above, and prepared for biolistic transformation as described in Example 4 above. Following bombardment the support membranes bearing the bombarded embryogenic cells were transferred to DCR2 maintenance media for one week. Following this the support membranes bearing the bombarded embryogenic cells were divided among plates containing gelled DCR selection medium either with or without the addition of 10 mg/l abscisic acid (ABA), and cultured for three weeks. Cells selected on either type of selection medium during this first selection period on selection medium containing ABA were then divided among plates with and without ABA and cultured for a further three weeks. The same occurred in the next transfer, resulting in groups of cells that had been selected entirely in the absence of ABA, entirely in the presence of ABA, or in the presence of ABA for one of the three three-week selection periods.

With `CC1=CC(=O)CC(C)(C)[C@@]1(O)/C=C/C(C)=C\C(=O)O` [ABA, abscisic acid] the “effect of ABA in the preparation medium on the observation of transformants” value ([1]; 10 or 30 mg/L ABA) was “neutral or beneficial”, the “necrotic foci in somatic embryogenic masses versus media without ABA” value ([1]; 10 or 30 mg/L ABA during and after co-cultivation, all lines) was “fewer necrotic foci” and the “Average (n = 12) number of transformants observed per selection plate” value (shortened to “Average (n = 12) number … per selection plate”) ([1]; line P1, ABA mg/l preparation/recovery/selection medium 0/0/10) was 0.3. The “Average (n = 12) number … per selection plate” value ([1]; line P1, ABA mg/l preparation/recovery/selection medium 0/0/30) was 0.0, the “Average (n = 12) number … per selection plate” value ([1]; line P1, ABA mg/l preparation/recovery/selection medium 0/10/10) was 0.0 and the “Average (n = 12) number … per selection plate” value ([1]; line P1, ABA mg/l preparation/recovery/selection medium 0/10/30) was 0.1. For the same molecule, the “Average (n = 12) number … per selection plate” value ([1]; line P1, ABA mg/l preparation/recovery/selection medium 0/30/30) was 0.8, the “Average (n = 12) number … per selection plate” value ([1]; line P1, ABA mg/l preparation/recovery/selection medium 10/10/10) was 1.3 and the “Average (n = 12) number … per selection plate” value ([1]; line P1, ABA mg/l preparation/recovery/selection medium 30/10/10) was 0.3. For the same molecule, the “Average (n = 12) number … per selection plate” value ([1]; line P1, ABA mg/l preparation/recovery/selection medium 30/30/30) was 0.4, the “Average (n = 12) number … per selection plate” value ([1]; line P2, ABA mg/l preparation/recovery/selection medium 0/0/10) was 5.8 and the “Average (n = 12) number … per selection plate” value ([1]; line P2, ABA mg/l preparation/recovery/selection medium 0/0/30) was 8.8. The “Average (n = 12) number … per selection plate” value ([1]; line P2, ABA mg/l preparation/recovery/selection medium 0/10/10) was 1.0, the “Average (n = 12) number … per selection plate” value ([1]; line P2, ABA mg/l preparation/recovery/selection medium 0/10/30) was 0.3 and the “Average (n = 12) number … per selection plate” value ([1]; line P2, ABA mg/l preparation/recovery/selection medium 0/30/30) was 5.2. The “Average (n = 12) number … per selection plate” value ([1]; line P2, ABA mg/l preparation/recovery/selection medium 10/10/10) was 10.0, the “Average (n = 12) number … per selection plate” value ([1]; line P2, ABA mg/l preparation/recovery/selection medium 30/10/10) was 5.9 and the “Average (n = 12) number … per selection plate” value ([1]; line P2, ABA mg/l preparation/recovery/selection medium 30/30/30) was 5.3. For the same molecule, the “Average (n = 12) number … per selection plate” value ([1]; line P3, ABA mg/l preparation/recovery/selection medium 0/0/10) was 21.7, the “Average (n = 12) number … per selection plate” value ([1]; line P3, ABA mg/l preparation/recovery/selection medium 0/0/30) was 22.3 and the “Average (n = 12) number … per selection plate” value ([1]; line P3, ABA mg/l preparation/recovery/selection medium 0/10/10) was 23.3. For the same molecule, the “Average (n = 12) number … per selection plate” value ([1]; line P3, ABA mg/l preparation/recovery/selection medium 0/10/30) was 26.0, the “Average (n = 12) number … per selection plate” value ([1]; line P3, ABA mg/l preparation/recovery/selection medium 0/30/30) was 18.6 and the “Average (n = 12) number … per selection plate” value ([1]; line P3, ABA mg/l preparation/recovery/selection medium 10/10/10) was 22.6. The “Average (n = 12) number … per selection plate” value ([1]; line P3, ABA mg/l preparation/recovery/selection medium 30/10/10) was 21.6, the “Average (n = 12) number … per selection plate” value ([1]; line P3, ABA mg/l preparation/recovery/selection medium 30/30/30) was 21.1 and the “Average (n = 12) number … per selection plate” value ([1]; line P4, ABA mg/l preparation/recovery/selection medium 0/0/10) was 27.5. The “Average (n = 12) number … per selection plate” value ([1]; line P4, ABA mg/l preparation/recovery/selection medium 0/0/30) was 34.9, the “Average (n = 12) number … per selection plate” value ([1]; line P4, ABA mg/l preparation/recovery/selection medium 0/10/10) was 28.8 and the “Average (n = 12) number … per selection plate” value ([1]; line P4, ABA mg/l preparation/recovery/selection medium 0/10/30) was 30.9. The “Average (n = 12) number … per selection plate” value ([1]; line P4, ABA mg/l preparation/recovery/selection medium 0/30/30) was 28.6, the “Average (n = 12) number … per selection plate” value ([1]; line P4, ABA mg/l preparation/recovery/selection medium 10/10/10) was 27.8 and the “Average (n = 12) number … per selection plate” value ([1]; line P4, ABA mg/l preparation/recovery/selection medium 30/10/10) was 22.7. For the same molecule, the “Average (n = 12) number … per selection plate” value ([1]; line P4, ABA mg/l preparation/recovery/selection medium 30/30/30) was 27.3, the “Average (n = 12) number … per selection plate” value ([1]; line P5, ABA mg/l preparation/recovery/selection medium 0/0/10) was 18.1 and the “Average (n = 12) number … per selection plate” value ([1]; line P5, ABA mg/l preparation/recovery/selection medium 0/0/30) was 5.5. For the same molecule, the “Average (n = 12) number … per selection plate” value ([1]; line P5, ABA mg/l preparation/recovery/selection medium 0/10/10) was 2.4, the “Average (n = 12) number … per selection plate” value ([1]; line P5, ABA mg/l preparation/recovery/selection medium 0/10/30) was 7.2 and the “Average (n = 12) number … per selection plate” value ([1]; line P5, ABA mg/l preparation/recovery/selection medium 0/30/30) was 3.3. The “Average (n = 12) number … per selection plate” value ([1]; line P5, ABA mg/l preparation/recovery/selection medium 10/10/10) was 10.3, the “Average (n = 12) number … per selection plate” value ([1]; line P5, ABA mg/l preparation/recovery/selection medium 30/10/10) was 11.3 and the “Average (n = 12) number … per selection plate” value ([1]; line P5, ABA mg/l preparation/recovery/selection medium 30/30/30) was 14.3. For the same molecule, the “Average (n = 12) number … per selection plate” value ([1]; line P6, ABA mg/l preparation/recovery/selection medium 0/0/10) was 3.9, the “Average (n = 12) number … per selection plate” value ([1]; line P6, ABA mg/l preparation/recovery/selection medium 0/0/30) was 3.3 and the “Average (n = 12) number … per selection plate” value ([1]; line P6, ABA mg/l preparation/recovery/selection medium 0/10/10) was 3.2. The “Average (n = 12) number … per selection plate” value ([1]; line P6, ABA mg/l preparation/recovery/selection medium 0/10/30) was 3.2, the “Average (n = 12) number … per selection plate” value ([1]; line P6, ABA mg/l preparation/recovery/selection medium 0/30/30) was 2.3 and the “Average (n = 12) number … per selection plate” value ([1]; line P6, ABA mg/l preparation/recovery/selection medium 10/10/10) was 4.5. For the same molecule, the “Average (n = 12) number … per selection plate” value ([1]; line P6, ABA mg/l preparation/recovery/selection medium 30/10/10) was 3.1, the “Average (n = 12) number … per selection plate” value ([1]; line P6, ABA mg/l preparation/recovery/selection medium 30/30/30) was 2.3 and the “Average (n = 12) number … per selection plate” value ([2]; ABA mg/l preparation/recovery/selection medium 0/0/10) was 27.0. For the same molecule, the “Average (n = 12) number … per selection plate” value ([2]; ABA mg/l preparation/recovery/selection medium 0/0/30) was 21.1, the “Average (n = 12) number … per selection plate” value ([2]; ABA mg/l preparation/recovery/selection medium 0/10/10) was 19.0 and the “Average (n = 12) number … per selection plate” value ([2]; ABA mg/l preparation/recovery/selection medium 0/10/30) was 21.6. For the same molecule, the “Average (n = 12) number … per selection plate” value ([2]; ABA mg/l preparation/recovery/selection medium 0/30/30) was 15.1, the “Average (n = 12) number … per selection plate” value ([2]; ABA mg/l preparation/recovery/selection medium 10/10/10) was 21.9 and the “Average (n = 12) number … per selection plate” value ([2]; ABA mg/l preparation/recovery/selection medium 30/10/10) was 22.9. For the same molecule, the “Average (n = 12) number … per selection plate” value ([2]; ABA mg/l preparation/recovery/selection medium 30/30/30) was 21.8, the “transformants from a cell line of progeny of the P. taeda elite line 7–56” value ([3]; 10 mg/L ABA in selection medium) was “observed only on treatments that had contained ABA in the selection medium” and the “number of transformants obtained when ABA was present during the entire selection period” value ([3]; 10 mg/l ABA in DCR selection medium, nine weeks, all lines tested) was “equal to or greater than the number obtained for any other treatment”.
